These results are taken from patent EP2813566A1, “Method for incorporating a compound into live yeast cells” (priority 2013, dated 2014).

What all share (type): cell-based
Experiment [1] has as its system Escherichia coli (Migula1895) Castellani and Chalmers 1919AL, ATCC10536. Briefly: Kirby-Bauer Disk Diffusion method, Escherichia coli reference strain. The note with it: for inhibition zone: 25-41-52-41°C. From the text:
The culture medium is Nutrient agar (Oxoid CM3) in g/litre Lab-Lemco beef extract 1; Yeast extract 2; Peptone 5; NaCl 5; Agar 15; pH7.4
(§1) For experimental purposes, the antimicrobial activities of the antibiotic standard solution of known concentration, of the yeasts within their incorporation broth after the methods steps, of the supernatants collected by centrifugation and of the pellets of the centrifuged yeasts, after each washing cycle, were compared, using a Kirby-Bauer Disk Diffusion method.
(§2) Sterile filter or blotter paper disks were laid down on the gelose, humidified with PBS 3 µl. 6 to 12µl of each above-mentioned fraction were then sucked into the blotting paper disk.

Experiment [2] deals with Streptococcus pyogenes Rosenbach 1884AL, ATCC12344. Put plainly: Kirby-Bauer Disk Diffusion method, Streptococcus pyogenes reference strain. The note with it: for inhibition zone diameter: Saccharomyces Lalvin.
Excerpt: Streptococcus pyogenes Rosenbach 1884AL, ATCC12344 comes from the BCCM-LMG Bacteria collection, accession number 21599, laboratorium voor microbiologie, UGent, B-9000 Gent. The culture medium is Brain Heart Infusion Broth of typical composition (g/litre) (brain extract, heart extract and peptones 27.5; D+glucose 2.0; sodium chloride 5.0; di-sodium hydrogen phosphate 2.5; agar-agar (not present in the broth) 15.0. Brain Heart Infusion Agar was purchased from Oxoid CM 0375. The medium may be enriched with a sterilized horse serum from defibrinated horse blood for 20 % of global volume. Brain Heart Infusion SM 225 from Oxoid may also be employed for streptococcus culture broth.
as §1
(§3) The selected reference strains were Streptococcus pyogenes Rosenbach1884AL (BCCM-LMG 21599) or Lactobacillus paracasei subsp. paracasei Collins, Phillips and Zanoni 1989 VP (BCCM-LMG 9192).
(§4) The streptococci or lactobacilli reference strains populations were counted in a Neubauer cell, and then diluted in PBS so as to obtain 2 million germs in one ml buffer: 0.5 ml of the diluted culture medium were then streaked on the agar plates. Another method for obtaining the suitable density of reference bacteria is the culture medium dilution in PBS so as to obtain with a filter photometer, an optical density of 0.04 at 620nm.
as §2
(Agar diffusion results depend on both activity and mobility in agar.)

Experiment [3] concerns Lactobacillus paracasei subsp. paracasei. Put plainly: Kirby-Bauer Disk Diffusion method, Lactobacillus paracasei reference strain.
Excerpt: Lactobacillus paracasei subsp. paracasei Collins, Phillips and Zanoni 1989 VP, type strain of Lactobacillus casei subsp. pseudoplantarum, came from the BCCM-LMG Bacteria collection, accession number 9192, ATCC 25598, depositor NCIMB. Lactobacillus kefiri Kandler and Kunath 1983VL, BCCM-LMG Bacteria collection, accession number 9480, ATCC 35411. A modified Man, Rogosa, Sharpe medium has been used for the Lactobacillus kefiri and for Lactobacillus paracasei culture, as a reference strain for antibiotic activity of the yeast strains: the composition (g/liter) peptone 10.0; meat extract 8.0; yeast extract 4.0; glucose 20.0; orthophosphate 2.0; magnesium sulphate heptahydrate 0.2; manganese sulphate tetrahydrate 0.05; ferrous sulphate 0.01; agar 10.0 The pH is adjusted to 6.2 with acetic acid.
as §1, §3, §4, §2

The subject of experiment [4] is Streptococcus pyogenes or Lactobacillus paracasei. Briefly: Kirby-Bauer Disk Diffusion method, reference strain not stated for the experiment. The note with it: Saccharomyces bayanus Lalvin, red grape juice + Potato Plus Juice, clarithromycin 2mg/ml, pH 4.0.
Excerpt: as §1, §3, §4, §2

SMILES strings stand for the structures. Counter-ions that a name gives are not always drawn.

With `NCC[C@H](O)C(=O)N[C@@H]1C[C@H](N)[C@@H](O[C@H]2O[C@H](CN)[C@@H](O)[C@H](O)[C@H]2O)[C@H](O)[C@H]1O[C@H]1O[C@H](CO)[C@@H](O)[C@H](N)[C@H]1O` [Amikacine sulfate standard in TBS, Amikacine sulphate], the inhibition zone in experiment [1] (Kluyveromyces marxianus, red grape juice + potatoes juice with selenium, Amukin 1mg/ml, pH 4.0, violet photoinduction) was found to be 26.5 mm.
As to `CC[C@H]1OC(=O)[C@H](C)[C@@H](O[C@H]2C[C@@](C)(OC)[C@@H](O)[C@H](C)O2)[C@H](C)[C@@H](O[C@@H]2O[C@H](C)C[C@H](N(C)C)[C@H]2O)[C@](C)(OC)C[C@@H](C)C(=O)[C@H](C)[C@@H](O)[C@]1(C)O` [Clarithromycin standard (2mg/ml), clarithromycin], the “inhibition zone in diameter” value in experiment [2] (Kluyveromyces marxianus + Lactobacillus kefiri, red grape juice + sweet potatoes juice with selenium, clarithromycin, pH 4.0, 25-41-52-41°C, violet photoinduction) was found to be 47 mm. Besides, the inhibition zone diameter in experiment [2] (YPD broth pH 6.5, clarithromycin 2mg/ml, simplified sequence 25-37-25°C (mild heat stress)) is given as 38 mm; in experiment [2] (red grape juice + raw potatoes juice with selenium, clarithromycin 2mg/ml, pH 4.0, thermal plates 25-41-52-41-35-25°C, 8µl on disk) it was 37 mm; in experiment [3] (Saccharomyces Lalvin, YPD broth pH 6.5, clarithromycin 2mg/ml, experiment with lethal heat stress 25-34-55-34-25°C) it was 40.5 mm; in experiment [3] (Saccharomyces Lalvin, red grape juice + raw potatoes juice with selenium, clarithromycin 2mg/ml, pH 4.0, 25-41-52-41-35-25°C, 8µl on disk), 38 mm. The inhibition zone in experiment [3] (Saccharomyces Lalvin, clarithromycin 2mg/ml, pH 4.0, 25-41-43-35-25°C) stood at 41 mm; in experiment [3] (Saccharomyces Lalvin, clarithromycin 2mg/ml, pH 4.0, 25-41-45-35-25°C) it was 41 mm; in experiment [3] (Saccharomyces Lalvin, clarithromycin 2mg/ml, pH 4.0, 25-41-47-35-25°C) it was 38.5 mm; in experiment [3] (Saccharomyces Lalvin, clarithromycin 2mg/ml, pH 4.0, 25-41-49-35-25°C), 40 mm; in experiment [3] (Saccharomyces Lalvin, clarithromycin 2mg/ml, pH 4.0, 25-41-51-35-25°C), 40 mm; in experiment [3] (Saccharomyces Lalvin, clarithromycin 2mg/ml, pH 4.0, 25-41-53-35-25°C), 40 mm. Moreover, the inhibition zone in experiment [3] (Saccharomyces Lalvin, clarithromycin 2mg/ml, pH 4.0, 25-41-54-35-25°C) amounted to 40 mm; in experiment [3] (Saccharomyces Lalvin, red grape juice + Potato Plus Juice, clarithromycin 2mg/ml, pH 4.0, 25-41-41-35-25°C (upper plate 41°C)), 41 mm; in experiment [3] (Saccharomyces bayanus Lalvin QA23, red grape juice + raw potatoes juice with selenium, clarithromycin 2mg/ml, pH 4.0, 25-41-52-41-35°C, skullcap extract after 35°C plate) it was 42 mm; in experiment [3] (Saccharomyces bayanus Lalvin, clarithromycin 2mg/ml, pH 6.5, after sequence 25-41-52-41-35-25°C (last thermal plate), 8µl) it was 38.5 mm; in experiment [3] (Saccharomyces bayanus Lalvin, medium a: red grape juice + Potato Plus Juice, clarithromycin 2mg/ml, pH 4.0, 25-41-52-41-35-25°C, violet photoinduction), 39.5 mm; in experiment [3] (Saccharomyces bayanus Lalvin, medium c: red grape juice + Potato Plus Juice + spelt wheat hydrolysate, clarithromycin 2mg/ml, pH 6.5, 25-41-52-41-35-25°C, violet photoinduction), 36.5 mm. Moreover, the inhibition zone in experiment [4] (after sequence 25-35-52-41°C (last thermal plate)) and in experiment [4] (after sequence 25-39-52-41°C (last thermal plate)) was 42 mm throughout.
On to `CC[C@H]1OC(=O)[C@H](C)[C@@H](O[C@H]2C[C@@](C)(OC)[C@@H](O)[C@H](C)O2)[C@H](C)[C@@H](O[C@@H]2O[C@H](C)C[C@H](N(C)C)[C@H]2O)[C@](C)(O)C[C@@H](C)C(=O)[C@H](C)[C@@H](O)[C@]1(C)O` [Erythromycin standard (2mg/ml), Erythromycin], for which the inhibition zone in experiment [2] (Saccharomyces bayanus Lalvin, red grape juice + alkaline hydrolyzed spelt wheat flour + parsley juice, erythromycin 1mg/ml, pH 7.0, 25-41-52-41-35-25°C, violet photoinduction, BHI agar with defibrinated horse blood) came out at 48 mm.
Regarding `CS(=O)(=O)c1ccc([C@@H](O)[C@@H](CF)NC(=O)C(Cl)Cl)cc1` [Florfenicol], in experiment [1] (Saccharomyces bayanus Lalvin and Saccharomyces cerevisiae combined, red grape juice medium, florfénicol 2mg/ml, pH 7.5, 20µl deposit), the inhibition zone turned out to be 39 mm.
In experiment [1] (20µl deposits, Saccharomyces cerevisiae bayanus Lalvin QA23, nitrofurantoin, pH around 7.0, 90minutes 41°C, 60minutes 52°C), `O=C1CN(/N=C/c2ccc([N+](=O)[O-])o2)C(=O)N1` [Standard nitrofurantoin in DMSO, 1mg/ml, Nitrofurantoin] registered an Inhibition zone diameters of 32 mm.
